Test results from PubChem BioAssay AID179 (DTP/NCI, 2004).
pEC50, pIC50: −log10 of the molar value. Where “and” joins values, the source holds several entries; their conditions need not be identical. Equal entries are not always repeated. Calls of active or inactive are those of the source.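 How the source made its calls: active means compounds giving half or more protection of infected cells from virus-caused growth loss, again on retest; inactive means the rest.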 Where a SMILES comes first, the peptide text is derived from it. The star is where a group is joined. Boc = CC(C)(C)OC(=O)*

Test system: CEM cells HIV-1 protection, formazan growth assay
Test: NCI AIDS Antiviral Assay
Conditions: for pIC50: measured here: growth of uninfected CEM cells
Procedure, shortened: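 Steps: treat uninfected and HIV-1-infected human CEM cells at five drug levels; quantify growth by soluble formazan; retest any compound reaching 50% protection; classify actives from the retest.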

SMILES	outcome	pEC50	pIC50
Cc1ccc(-n2nc3c(c(C#N)c2=O)-c2ccccc2C3=O)cc1	inactive	–	–
NC(CSSCC(N)C(=O)O)C(=O)O (stereo unspecified)	–	< 3.70	< 3.70
Clc1ccccc1/C=C\C1(c2ccccc2)OCCO1	–	< 3.70	4.98
Cc1c2ccccc2nc(CN2CCOCC2)[n+]1[O-]	–	< 3.70	< 3.70
COc1ccc2ccccc2c1C1=NC(C)(C)CO1	–	< 3.01	3.32
O=C1NC2=NN=C(c3ccc(Br)cc3)CN2NC12c1ccccc1-c1ccccc12	–	< 4.00	< 4.00
Fc1ccccc1C=NC12CC3CC(CC(C3)C1)C2	–	< 4.69	< 4.69
Cc1nc(C)c(Cc2ccccc2)o1	–	< 3.70	< 3.70
COC1CC(n2ccc(=O)[nH]c2=O)OC1CO (stereo unspecified)	–	< 3.70	< 3.70
CN1C(=O)N(C)C2(CCN(CC(CC3OCCO3)c3ccc(F)cc3)CC2)C1=O (stereo unspecified)	–	< 3.70	< 3.70
OCCN(CCO)CCn1cnc2c(NCc3ccccc3)ncnc21	–	< 3.70	< 3.70
CC(=O)CC1CCC(=O)CCC(=O)OC(CC(C)=O)CCC(=O)CCC(=O)O1 (stereo unspecified)	–	3.77	< 3.70
C/C=C/C#CC#CC(O)C(O)/C=C/CCCO (stereo unspecified)	–	< 4.11	< 4.11
O=C1/C(=C\c2cccc(Oc3ccccc3)c2)SC(c2ccccc2)N1c1ccccc1Cl (stereo unspecified)	–	< 4.70	–
O=S(c1ccc(Cl)cc1)S(=O)c1ccc(Cl)cc1 (stereo unspecified)	–	< 4.65	4.74
COc1ccc(/C=C2\CCC(C)/C(=C\c3ccc(OC)c(OC)c3)C2=O)cc1OC (stereo unspecified)	–	< 3.82	5.10
COc1c(Cl)cc(C(=CCC(=O)N[C@@H]2CC[C@@]3(C)[C@@H](CC[C@@H]4[C@@H]3CC[C@]3(C)[C@@H]([C@H](C)CCCC(C)C)CC[C@@H]43)C2)c2cc(Cl)c(OC)c(C(=O)O)c2)cc1C(=O)O	–	< 3.70	4.99
CS(=O)(=O)NNS(=O)(=O)c1ccc(Cl)cc1	–	< 3.90	< 3.90
COc1cnc(NS(=O)(=O)c2ccc(N)cc2)nc1	–	< 3.70	< 3.70
CC(=O)c1cc2c3c(c1)C(=O)CCN3CCC2=O	inactive	–	–
COc1ccc(C2ON(c3cccc(C)n3)CC=C2C)cc1 (stereo unspecified)	–	< 4.34	< 4.34
O=C1CN(c2ccccc2)C(=O)C1C(=O)Nc1ccc(Cl)c(Cl)c1 (stereo unspecified)	–	< 5.40	5.41

SMILES	outcome	pEC50	pIC50
N=S(=O)(c1ccccc1)c1ccccc1	inactive	–	–
N#C/C1=C(\C#N)N=Cc2ccccc2NCCNc2ccccc2C=N1	–	< 3.70	< 3.70
Cc1nn(C(=O)c2ccc(Cl)cc2)c2c1C(c1ccco1)SC(N)=N2 (stereo unspecified)	–	3.77	< 3.70
CC(C)CN(CC(C)C)CN1C(=O)/C(=C/c2ccc([N+](=O)[O-])cc2)SC1=S	–	< 3.70	4.80
c1ccc(CSC(SCc2ccccc2)(c2ccccc2)c2ccccc2)cc1	–	< 3.70	3.99 and < 4.00
CC(=O)OC1COC(Nc2nc(NCc3ccccc3)n(C)c(=O)c2N=O)C(OC(C)=O)C1OC(C)=O (stereo unspecified)	–	< 3.70	< 3.70
OCCN(CCO)c1nc(N2CCCCC2)c2nc(N(CCO)CCO)nc(N3CCCCC3)c2n1	inactive	–	–
O=C(CC1C(=O)Nc2ccccc2S1=O)Nc1cccc(Cl)c1 (stereo unspecified)	–	< 4.68	< 4.68
Cc1c(Cl)cccc1Nc1ncccc1C(=O)OCC(O)CO (stereo unspecified)	–	< 3.70	4.04
Cc1ccnc2c1c(=O)c1ccccc1n2C	–	< 3.82	4.38
CN1CCN(C(=O)/N=N\C(=O)N2CCN(C)CC2)CC1	–	< 3.70	< 3.70
NC(CCSSCCC(N)C(=O)O)C(=O)O (stereo unspecified)	–	< 4.71	< 4.71
Cc1nc2c(nc1C)C(=O)C(Cl)=C(N)C2=O	inactive	–	–
OC1C2CCC1C1C3C=CC(C3)C21 (stereo unspecified)	inactive	–	–
Cc1c2c(c(C)n1-c1ccccc1)C(=O)N(CCCCN1CCN(c3ccccc3)CC1)C2=O	–	< 3.70	5.05
Cc1ccc(S(=O)(=O)N2CCN3CCN(CCN(C)CCN4CCN(CC4)CCN(S(=O)(=O)c4ccc(C)cc4)CCN(S(=O)(=O)c4ccc(C)cc4)CCN(S(=O)(=O)c4ccc(C)cc4)CCN(S(=O)(=O)c4ccc(C)cc4)CCN4CCN(CCN(C)CCN5CCN(CC5)CCN(S(=O)(=O)c5ccc(C)cc5)CCN(S(=O)(=O)c5ccc(C)cc5)CCN(S(=O)(=O)c5ccc(C)cc5)CC2)CC4)CC3)cc1	–	< 5.30	6.14
N=C1/C(=C/c2ccc(F)cc2)C(=O)N=C2SC=NN12	–	< 3.70	< 3.70
CCOC(=O)NC(=O)c1cn(CCSCCOC(=O)NCCCCCCNC(=O)OCCSCCn2cc(C(=O)NC(=O)OCC)c(=O)n(C)c2=O)c(=O)n(C)c1=O	–	< 5.08	< 5.08
Cc1ccccc1NC(=O)C1C(=O)N(c2ccccc2C)C(=O)/C1=N\NC(N)=O (stereo unspecified)	–	< 4.88	< 4.88
CC(=O)c1c(O)ccc(O)c1-n1nc(C)c([N+](=O)[O-])c1C	–	< 3.65	< 3.65
CCOC(=O)[C@H]1C[C@@H](C(=O)c2ccccc2)N2N=C(c3ccc(Br)cc3)C=C[C@H]12	–	< 4.00	< 4.00
COC(=O)c1c(C)cccc1C1CN=NC12Cc1ccc(C)cc1C2=O (stereo unspecified)	–	< 4.14	4.38

SMILES	outcome	pEC50	pIC50
CN1Cc2c(N)cccc2C(c2ccccc2)C1 (stereo unspecified)	inactive	–	–
CCOC(=O)/C=C/CC(C)n1cc(C)c(=O)[nH]c1=O (stereo unspecified)	inactive	–	–
CCN(CC)CSc1nc2ccccc2s1	inactive	–	–
CC(CCC(=O)O)(c1ccc(O)c(CN(c2ccccc2)c2ccccc2)c1)c1ccc(O)c(CN(c2ccccc2)c2ccccc2)c1	inactive	–	–
CN=C1Nc2ccc(Cl)cc2C(c2ccccc2)=NN1C	–	< 3.92	4.03
CC1(C)OCC(C2OC3OC(C)(C)OC3C2c2ccccc2)O1 (stereo unspecified)	–	< 3.70	< 3.70
N/N=C(/C(=O)Nc1cccc(Cl)c1)C(C(=O)c1ccc(O)cc1O)C1OC(=O)c2ccccc21 (stereo unspecified)	–	< 3.28	4.06
Cc1cc(=O)c2c(O)cc(O)c(C3CCN(C)CC3O)c2o1 (stereo unspecified)	–	< 2.99	4.77
O=[N+]([O-])C1=C(c2ccccc2)SC(Br)=C(c2ccccc2)S1	–	< 4.00	6.09
N#C/C(=C\c1ccccc1Br)C(=O)c1ccccc1	–	< 4.49	< 4.49
C1C2CC3CC1CC(c1nn4c(C56CC7CC(CC(C7)C5)C6)nnc4s1)(C2)C3	–	< 3.70	< 3.70
CCOC(=O)c1cnc(-n2[nH]c(C)c(CCO)c2=O)[nH]c1=O	–	< 3.70	< 3.70
CC1=C(C)SC(=C2Sc3c(n(C)c(=O)[nH]c3=O)S2)S1	–	< 3.70	< 3.70
CC1Nc2c(ccc3ncccc23)C(=O)N1Nc1ccccc1 (stereo unspecified)	–	< 4.08	4.22
O=C1/C(=C/c2ccco2)NC(=S)N1CN1CCCCC1	–	< 3.70	4.49
O=C1/C(=C/c2ccccc2)CN(C(=O)Oc2ccc([N+](=O)[O-])cc2)C/C1=C\c1ccccc1	inactive	–	–
C=C1CCCCCCCCCCC12SCCCS2	–	< 3.70	< 3.70
CC1(C)O[C@]2(C)CC[C@@H]1[C@@H](O)[C@@H]2N1CCCC1	–	< 3.38	< 3.38
COC(=O)CN1Cc2cc(C)cc(c2O)CN(CC(=O)OC)Cc2cc(C)cc(c2O)CN(CC(=O)OC)Cc2cc(C)cc(c2O)C1	–	< 3.70	4.71
Cn1c(=N)n(CC(=O)NC23CC4CC(CC(C4)C2)C3)c2ccccc21	–	< 3.46	4.18
CSCCC(NC(=O)C(CC(C)C)NC(=O)CNC(=O)OC(C)(C)C)C(=O)N(C)C (stereo not drawn) (Boc-Gly-Leu-Met-NMe2; configuration not given here)	–	< 3.70	< 3.70
N/C(CCSCCSCC/C(N)=N\O)=N\O	–	< 3.70	< 3.70

SMILES	outcome	pEC50	pIC50
COc1ccc(Nc2nc(NS(=O)(=O)c3cc(C)c(Cl)cc3S)n[nH]2)cc1	–	3.75	3.59
OCC1NC(COC2OC(CO)C(O)C(O)C2O)C(O)C(O)C1O (stereo unspecified)	inactive	–	–
CC(C)(C)C(=O)/C=C(\OB(F)F)C(C)(C)C	–	< 3.70	< 3.70
O=C(CCCC[n+]1ccccc1)Sc1ccccc1C(=O)Nc1ccc(S(=O)(=O)c2ccc(NS(=O)(=O)Cc3ccccc3[N+](=O)[O-])cc2)cc1	–	5.02	< 3.70
C=CC[C@H]1O[Si](C(C)(C)C)(C(C)(C)C)[C@H](C)[C@H]1C	–	< 3.70	< 3.70
[O-]/N=[N+](/[O-])C1CCCCC1=[N+]1CCOCC1 (stereo unspecified)	–	< 3.70	4.49
Cc1oc2nc(N(C)C)nc(Cl)c2c1C	inactive	–	–
C[C@@]12C[C@@H](c3ccccc3O1)N1CCSC1=N2	inactive	–	–
O=[As](O)(O)c1cccc(F)c1	–	< 3.70	3.97
CCCN(C)C(=O)COc1cc2c(O)c3c(O)c(C)c4c(c13)C(=O)C(C)(O/C=C/C(OC)C(C)C(OC(C)=O)C(C)C(O)C(C)C(O)C(C)/C=C/C=C(\C)C(=O)N2)O4 (stereo unspecified)	–	< 3.70	4.73
CC(C)OC(=O)C1(C(C)C)CCc2ccc(C(=O)CCC(=O)O)cc21 (stereo unspecified)	–	< 3.70	3.75
CCCCCCC(CC)(C(=O)O)C(=O)O	–	< 3.36	< 3.36
COC12CCCN1c1ccn(Cc3ccccc3)c(=O)c1C2=O (stereo unspecified)	inactive	–	–
O=C(O)c1[nH][nH]c(=O)c1N=Nc1ccc(/C=C/c2ccc(N=Nc3c(C(=O)O)[nH][nH]c3=O)cc2S(=O)(=O)O)c(S(=O)(=O)O)c1	–	< 3.70	< 3.70
Cc1c(C#N)c2ccccc2c2nc3ccccc3n12	–	< 3.70	3.89
COC(=O)Nc1nc2ccc(SC)cc2c(=O)[nH]1	–	< 3.45	4.90
CC(=O)/C(=C/c1ccccc1Br)C(=O)c1ccccc1	–	< 4.24	4.65
COc1cc(/C=C/C2=C(C#N)C(=O)OC2(C)C)ccc1O	–	< 3.90	< 3.90
O=C1OC(CC(=O)c2ccc(Cl)cc2)C(Cl)=C1Cl (stereo unspecified)	–	< 4.07	< 4.07
COC(=O)C1C(C(=O)OC)C1(Br)CBr (stereo unspecified)	–	< 3.70	5.23
